Source: patent publication US6656500B2, “Capsule system” (Allergan, Inc., priority 1999, dated 2003)

Tests used:
[1] = women of child-bearing age who just get off treatment; cited from earlier work
[2] = Amount of Tazarotene solubilized in caprylic/capric triglyceride per capsule; format: physicochemical; settings: caprylic/capric triglyceride vehicle
Source text: Importantly, the retinoid agent, Tazarotene, is fully dissolved in the vehicle in a conventional manner before incorporation into the capsule shell. The total dissolution of Tazarotene in the vehicle facilitates absorption from the gastro-intestinal tract by eliminating the need for drug dissolution prior to absorption.

[3] = Solubility of Tazarotene in water; format: physicochemical
Source text: The invention is directed to capsule systems for the delivery of active agents, particularly retinoids. In a preferred example, it is known that the compound Tazarotene, known chemically as ethyl 6-[(4,4-dimethylthiochroman-6-yl)ethynyl]-nicotinate, having the molecular formula C21H21NO2S, is active in the treatment of acne and psoriasis. […] However, the solubility of Tazarotene in water is negligible.

SMILES | typical precautionary pregnancy wash-out period [1] | amount effectively solubilized in a capsule [2] | solubility in water [3]
CC1=C(/C=C/C(C)=C/C=C/C(C)=C\C(=O)O)C(C)(C)CCC1 [isotretinoin] | one month |  | 
COc1cc(C)c(/C=C/C(C)=C/C=C/C(C)=C/C(=O)O)c(C)c1C [acitretin] | three years |  | 
CCOC(=O)c1ccc(C#Cc2ccc3c(c2)C(C)(C)CCS3)nc1 [Tazarotene, ethyl 6-[(4,4-dimethylthiochroman-6-yl)ethynyl]-nicotinate] |  | up to 34 mg | negligible
